These results are taken from patent EP3298025B1, “NEW AMINO ACID SEQUENCES WITH MI[…] DERIVED FROM NAJA ATRA CARDIOTOXIN 1 (CTX-1)” (Università degli Studi di Parma, priority 2015, dated 2016).

For series [1] the following is noted: at 40 µg / ml; cited from earlier work.
Another series deals with Mutton RBCs. Briefly: haemolysis test. Format: cell-based. Particulars: maximum concentration 100 µg/ml; 1 hour at room temperature. As to the method:
Mutton RBCs, sampled immediately before the test, were washed with isotonic buffer to obtain clear supernatant. The washed RBCs were incubated with different peptide concentrations for 1 hour at room temperature. After this the solution was centrifuged and the haemolysis in the supernatant quantified with a spectrophotometer at 450 nm. The positive control was RBC lysed with 0,1% of Tryton. The sample determined the maximal optical density. The haemolysis percentage was calculated as sample optical density at 450 nm and positive control optical density ratio. MHC10 was the minimal peptide concentration able to lyse 10% of RBC.

The subject of series [2] is epithelial MDBK cells (Madin Darby Bovine Kidney). Kind of series: cytotoxicity against eukaryotic cells, Trypan Blue. Format: cell-based. Conditions: overnight incubation. The procedure: Peptides cytotoxicity against epithelial MDBK cells (Madin Darby Bovine Kidney) was determined using cell cultures of about 5x10^5 cells/ml with and without peptides, with overnight incubation at 37°C with CO2. The negative control was in medium without peptide; positive control was in medium with 0.2% of Triton x100, to completely lyse cells. Cells vitality was assessed adding every well with 20 µl of Trypan Blue, incubating other 5 minutes at 37°C. MCC10 was the minimal peptide concentration with 10% of cytotoxicity.

No end group written: not given here.

Consider “KFFKFFKFFK [synthetic peptide consisting of cationic lysine residues and hydrophobic phenylalanine residues]”, for which the hemolysis entry in series [1] was “severely hemolytic”.

With KLIPILSKTIPAIKNLFYKI [NCP-2], the haemolytic effect in the series with Mutton RBCs is < 10%. In addition, the “Cytotoxicity: cell number percentage reduction in comparison with control” value in series [2] (peptide 12.5 µg/ml) was 3%; in series [2] (peptide 100 µg/ml) it was 5%.

As for KLIWILSKTIPAIKNLFYKI [NCP-3], the haemolytic effect with Mutton RBCs is recorded as < 10%. In addition, the “Cytotoxicity: cell number percentage reduction in comparison with control” value stood at 3% in series [2] (peptide 12.5 µg/ml) and 7% in series [2] (peptide 100 µg/ml).
